Assay results reported in patent publication US20220041559A1, “BENZO-AND PYRIDO-PYRAZOLES AS PROTEIN KINASE INHIBITORS” (ROTTAPHARM BIOTECH S.R.L., priority 2019, published 2022).

What was measured:
FYN = target: T1, FYN (Homo sapiens, UniProt P06241); experiment: Z'-LYTE in vitro kinase assay, FYN kinase inhibition; format: biochemical
T1 construct: purchased CarnaBioscience
Method in brief: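 Active FYN incubated with Z′-LYTE Tyr 2 peptide, near-Km ATP and compound (10^−10 to 10^−5 M final, 1% DMSO) in 50 mM Hepes pH 7.5, 10 mM MgCl2, 1 mM EGTA, 0.01% Brij-35, 60 min at 25° C. Protease development then coumarin/fluorescein FRET readout gives % phosphorylation; IC50 by non-linear fitting.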

U87MG xenograft = experiment: Survival time of intracranial U87MG glioblastoma bearing mice; format: in vivo, athymic Nude mice; details: 50 mg/kg orally once a day, day 9 until day 19
Protocol: Human U87MG cancer cell line were implanted in athymic Nude mice by intracranial injection. Mice, divided into two groups, were orally dosed for 10 days either with vehicle or with Compound 5 (50 mg/kg, once a day) from the day 9 until day 19 after injection of tumour cells. The animal survival was tracked over time, mice were monitored for mortality and sacrificed at appearance of signs of distress, neurological deficits, seizure, or significant body weight loss (e.g. >20%).

VEGFR2 (KDR) kinase = target: T2, VEGFR2 (KDR) kinase (Homo sapiens, UniProt P35968); experiment: ADP-Glo in vitro kinase assay, VEGFR2 kinase inhibition; format: biochemical; details: ATP 50 μM, 30 minutes at room temperature
T2 construct: purchased SignalChem
Protocol: The ADP-Glo™ Kinase Assay (Promega), monitoring ADP produced in the kinase reaction, was performed in two steps. In the first one, after the kinase reaction, the ADP-Glo™ Reagent is added to terminate the kinase reaction and deplete the remaining ATP. In the second step, the Kinase Detection Reagent is added to simultaneously convert ADP to ATP (ATPn or newly synthesized ATP) and introduce luciferase and luciferin, allowing the ATPn to be measured (luciferase/luciferin reaction). The amount of light generated correlates with the amount of ATPn (indirectly with the ADP produced in kinase reaction).
Kinase reaction was performed in 10 μl in a white 384-well plate, inhibitor solutions in DMSO/Kinase buffer (40 mM Tris-Cl, 20 mM MgCl2, 0.1 mg/ml BSA, 50 μM DTT, pH 7.5) and VEGFR2 (KDR) kinase in Kinase buffer (SignalChem, 0.5 ng/μl final concentration in assay) were pre-incubate 15 minutes at room temperature. At the kinase concentration selected, a signal-to negative control ratio >10 was calculated, according to supplier indication. In samples representing the Total enzymatic activity or the negative control (no enzyme), inhibitor solution was replaced by diluents (1 DMSO in kinase buffer, final concentration) or ultra-pure water, respectively.
The range of inhibitor concentrations was from 10^−11 M up to 3×10^−6 M (final concentration in assay) and each experimental point was performed in duplicate.
To start the reaction, a substrate/ATP mix (50 μM final concentration, near to ATP Km value) was added to each sample and after 30 minutes incubation at room temperature, ADP-Glo™ Reagent and Kinase Detection Reagent, incubated in sequence according to the respective incubation time and supplier indication, allowed to stop and develop the kinase reaction. The luminescence was measured with a plate-reading luminometer (Envision 2104 Multilabel reader, PerkinElmer). The percentage of inhibition was calculated towards the Total enzymatic activity and the corresponding curves were analyzed by non linear curve fitting (GraphPad software, version 7 for Windows), allowing to calculate the IC50 value±standard error of the value

EGFR = EGFR (Homo sapiens, UniProt P00533); experiment: Inhibition of EGF-induced EGFR (Y1068)-phosphorylation (cell-based assay, U87MG); parameters: endogenous in cells; host or cells: U87MG; details: EGF 10 ng/ml, Western blot
Protocol: U87MG cells (Uppsala 87 Malignant Glioma, a human glioblastoma cell line from ATCC) were plated at 3×10^5 cells/well in 12 w microplates and grown adherent in medium DMEM+10% FBS at 37° C. with 5% CO2. After 24 h, medium was removed and starvation was induced overnight in medium DMEM+0.1% FBS (medium starvation). At the end of incubation, treatment of cells was performed by medium replacement and by adding fresh medium containing or not diluent or test compounds (DMSO 0.1% final concentration) diluted in medium starvation. After 1 hour, EGF stimuli (diluted in medium starvation, 10 ng/ml final concentration) was added to each sample, with the exception of basal sample; plate was then incubated for 15 min at 37° C. with 5% CO2. At the end of the incubation, the medium was removed and cellular lysates were obtained by adding M-PER lysis buffer containing 1× Protease/Phosphatase inhibitors cocktail. Then, lysates were transferred into Eppendorf tubes, sonicated and stored at −80° C.
Protein content was measured by Bradford method. Lysates were analyzed by Western blot for EGFR phosphorylation (Tyrosine 1068) and total receptor amount determination. Densitometric analysis of sample lanes were performed by ImageQuant TL software (GE Healthcare Life Sciences). […]

T1 sequence (P06241 whole entry): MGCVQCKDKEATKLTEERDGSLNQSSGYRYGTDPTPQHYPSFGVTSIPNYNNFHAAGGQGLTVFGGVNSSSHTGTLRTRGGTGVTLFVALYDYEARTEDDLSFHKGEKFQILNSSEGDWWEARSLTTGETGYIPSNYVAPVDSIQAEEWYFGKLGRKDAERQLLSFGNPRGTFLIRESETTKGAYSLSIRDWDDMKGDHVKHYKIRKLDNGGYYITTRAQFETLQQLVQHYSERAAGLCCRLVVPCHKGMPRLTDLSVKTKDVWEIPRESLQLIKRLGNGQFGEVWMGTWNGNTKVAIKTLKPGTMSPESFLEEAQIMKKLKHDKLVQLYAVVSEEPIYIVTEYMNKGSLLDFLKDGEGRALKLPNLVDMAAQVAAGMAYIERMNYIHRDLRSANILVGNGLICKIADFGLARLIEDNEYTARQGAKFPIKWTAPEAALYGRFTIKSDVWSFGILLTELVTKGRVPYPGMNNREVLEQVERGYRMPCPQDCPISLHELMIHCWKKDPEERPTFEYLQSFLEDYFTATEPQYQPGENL
T2 sequence (P35968 20-1356): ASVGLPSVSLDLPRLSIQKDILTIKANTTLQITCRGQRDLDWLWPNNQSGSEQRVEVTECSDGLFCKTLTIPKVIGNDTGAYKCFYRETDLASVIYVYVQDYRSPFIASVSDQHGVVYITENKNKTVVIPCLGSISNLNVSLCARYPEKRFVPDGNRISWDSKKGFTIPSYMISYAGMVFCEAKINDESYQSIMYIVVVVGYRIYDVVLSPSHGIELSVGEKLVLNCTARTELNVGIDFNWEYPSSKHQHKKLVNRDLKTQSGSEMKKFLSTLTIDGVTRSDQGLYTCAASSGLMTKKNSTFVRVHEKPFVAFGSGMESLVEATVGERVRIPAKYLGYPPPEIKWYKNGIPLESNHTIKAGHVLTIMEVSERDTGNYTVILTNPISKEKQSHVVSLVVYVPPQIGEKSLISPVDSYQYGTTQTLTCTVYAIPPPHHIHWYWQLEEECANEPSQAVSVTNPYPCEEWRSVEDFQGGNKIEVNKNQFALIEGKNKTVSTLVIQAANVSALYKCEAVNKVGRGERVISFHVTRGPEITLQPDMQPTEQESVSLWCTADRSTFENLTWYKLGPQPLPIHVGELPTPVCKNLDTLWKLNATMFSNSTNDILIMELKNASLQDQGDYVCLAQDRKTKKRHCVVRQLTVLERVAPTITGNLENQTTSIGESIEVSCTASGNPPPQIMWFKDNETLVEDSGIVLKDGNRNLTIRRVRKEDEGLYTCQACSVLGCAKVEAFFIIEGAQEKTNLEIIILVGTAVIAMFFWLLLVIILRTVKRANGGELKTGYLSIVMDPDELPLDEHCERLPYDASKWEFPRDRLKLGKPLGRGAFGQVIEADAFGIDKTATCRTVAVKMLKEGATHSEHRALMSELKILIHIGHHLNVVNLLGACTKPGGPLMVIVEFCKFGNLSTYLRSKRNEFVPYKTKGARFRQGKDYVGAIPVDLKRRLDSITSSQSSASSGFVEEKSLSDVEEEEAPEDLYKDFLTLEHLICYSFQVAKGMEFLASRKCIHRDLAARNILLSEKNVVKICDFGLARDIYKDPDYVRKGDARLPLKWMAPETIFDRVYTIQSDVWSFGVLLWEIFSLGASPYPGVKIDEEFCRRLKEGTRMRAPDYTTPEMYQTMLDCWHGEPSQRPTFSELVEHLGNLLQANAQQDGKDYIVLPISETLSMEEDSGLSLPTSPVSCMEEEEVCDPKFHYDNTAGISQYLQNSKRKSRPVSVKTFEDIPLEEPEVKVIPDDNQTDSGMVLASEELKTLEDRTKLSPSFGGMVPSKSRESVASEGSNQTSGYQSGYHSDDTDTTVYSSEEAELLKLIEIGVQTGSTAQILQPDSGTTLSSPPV
Sequence of EGFR (P00533 25-1210): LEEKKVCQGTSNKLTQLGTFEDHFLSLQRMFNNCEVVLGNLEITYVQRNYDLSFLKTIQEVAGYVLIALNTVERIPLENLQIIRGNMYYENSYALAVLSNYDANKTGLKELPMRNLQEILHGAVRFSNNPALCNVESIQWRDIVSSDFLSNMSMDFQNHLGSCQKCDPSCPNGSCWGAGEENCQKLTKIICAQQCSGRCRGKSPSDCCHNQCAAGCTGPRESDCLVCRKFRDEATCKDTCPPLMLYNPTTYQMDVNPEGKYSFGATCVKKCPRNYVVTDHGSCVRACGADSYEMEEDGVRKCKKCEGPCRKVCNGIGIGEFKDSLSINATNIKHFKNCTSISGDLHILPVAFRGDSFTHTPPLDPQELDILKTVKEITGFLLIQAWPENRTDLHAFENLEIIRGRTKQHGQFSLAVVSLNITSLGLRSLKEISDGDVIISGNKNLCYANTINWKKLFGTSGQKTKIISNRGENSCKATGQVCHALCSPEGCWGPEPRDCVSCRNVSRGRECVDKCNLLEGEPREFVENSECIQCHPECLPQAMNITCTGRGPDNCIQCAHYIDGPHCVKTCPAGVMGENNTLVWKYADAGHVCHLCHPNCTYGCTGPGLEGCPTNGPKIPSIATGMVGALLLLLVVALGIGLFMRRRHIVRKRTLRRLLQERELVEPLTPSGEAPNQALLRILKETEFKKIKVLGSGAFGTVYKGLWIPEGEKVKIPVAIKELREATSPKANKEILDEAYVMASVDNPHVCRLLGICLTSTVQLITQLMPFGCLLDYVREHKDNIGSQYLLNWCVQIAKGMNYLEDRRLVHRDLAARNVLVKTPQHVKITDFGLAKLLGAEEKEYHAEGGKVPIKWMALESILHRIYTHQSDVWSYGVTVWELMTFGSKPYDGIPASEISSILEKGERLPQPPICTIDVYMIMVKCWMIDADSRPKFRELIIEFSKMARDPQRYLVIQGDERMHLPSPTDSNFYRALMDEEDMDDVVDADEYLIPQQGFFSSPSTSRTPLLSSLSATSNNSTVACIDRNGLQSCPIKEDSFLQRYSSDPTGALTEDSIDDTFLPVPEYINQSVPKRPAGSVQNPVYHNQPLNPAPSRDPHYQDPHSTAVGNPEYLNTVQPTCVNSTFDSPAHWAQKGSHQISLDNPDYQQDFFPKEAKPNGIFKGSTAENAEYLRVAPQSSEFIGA

CN1CCC(c2ccc(C(=O)Nc3n[nH]c4nc(Nc5ccccc5F)ccc34)cc2)CC1 [Compound 5, N-(6-((2-fluorophenyl)amino)-1H-pyrazolo[3,4-b]pyridin-3-yl)-4-(1-methylpiperidin-4-yl)benzamide]
FYN kinase inhibition, result in words (FYN; Table 17): more active
IC50 (FYN; near-Km ATP, 60 minutes at 25° C.): 69 nM
median survival time from tumour cell injection (U87MG xenograft): 70 days
IC50 (VEGFR2 (KDR) kinase): 82 nM
IC50 (EGFR): 3000 nM
